This note sets out measurements from ChEMBL document CHEMBL3132779, “Design, synthesis and biological evaluation of imidazo[1,5-a]pyridinePBD conjugates as potential DNA-directed alkylating agents” (Medchemcomm, 2013).

Active and inactive are the calls of the source. The calls are words filed in the database; no cut-off is given here.

Experiment [1] deals with MCF7. Put plainly: Cytotoxicity against human MCF7 cells assessed as reduction cell viability after 24 hrs by MTT assay. It counts as functional, cell-based. Particulars: MCF7, 24 h. (Tetrazolium assays rely on reduction of a dye to a coloured formazan, in cell work by metabolically active cells.)
The test system of experiment [2] is MCF7. The experiment is described as follows: Cell cycle arrest in human MCF7 cells assessed as accumulation at S phase at 2 uM after 24 hrs by propidium iodide staining-based flow cytometric analysis (reference value: 12.23%). Type of experiment: functional.
Experiment [3] deals with MCF7. The experiment is described as follows: Cell cycle arrest in human MCF7 cells assessed as accumulation at G1 phase at 4 uM after 24 hrs by propidium iodide staining-based flow cytometric analysis (reference value: 56.48%). Type of experiment: functional. Background: Flow cytometry measures light scatter and fluorescence of single cells or particles in a stream.
Experiment [4] concerns MCF7. Put plainly: Cell cycle arrest in human MCF7 cells assessed as accumulation at G2/M phase at 2 uM after 24 hrs by propidium iodide staining-based flow cytometric analysis (reference value: 27.93%). It counts as functional.
For experiment [5], the system named is MCF7. The experiment is described as follows: Cell cycle arrest in human MCF7 cells assessed as accumulation at G0 phase at 2 uM after 24 hrs by propidium iodide staining-based flow cytometric analysis (reference value: 3.36%). It counts as functional.
Experiment [6] has as its system MCF7. Put plainly: Cell cycle arrest in human MCF7 cells assessed as accumulation at G1 phase at 2 uM after 24 hrs by propidium iodide staining-based flow cytometric analysis (reference value: 56.48%). Type of experiment: functional.
Experiment [7] concerns MCF7. Put plainly: Cell cycle arrest in human MCF7 cells assessed as accumulation at G2/M phase at 4 uM after 24 hrs by propidium iodide staining-based flow cytometric analysis (reference value: 27.93%). Type of experiment: functional.
Experiment [8] concerns DNA. The experiment is described as follows: Binding affinity to calf thymus DNA assessed as change in melting temperature at 1:5 drug/DNA ratio at 37 degC after 18 hrs by spectrophotometry. Type of experiment: nucleic-acid assay. The conditions noted are these: Bos taurus.
For experiment [9], the system named is MCF7. The experiment is described as follows: Cell cycle arrest in human MCF7 cells assessed as accumulation at G0 phase at 4 uM after 24 hrs by propidium iodide staining-based flow cytometric analysis (reference value: 3.36%). It counts as functional.
Experiment [10] deals with MCF7. The experiment is described as follows: Cell cycle arrest in human MCF7 cells assessed as accumulation at S phase at 4 uM after 24 hrs by propidium iodide staining-based flow cytometric analysis (reference value: 12.23%). Type of experiment: functional.
Experiment [11] deals with MCF7. The experiment is described as follows: Induction of apoptosis in human MCF7 cells assessed as increase in P53 tumor suppressor protein expression at 4 uM after 24 hrs by Western blot analysis. It counts as functional, cell-based.
In experiment [12] the test system is MCF7. The experiment is described as follows: Induction of apoptosis in human MCF7 cells assessed as increase in active caspase 9 at 4 uM after 24 hrs by Western blot analysis. Type of experiment: functional, cell-based.
The test system of experiment [13] is MCF7. The experiment is described as follows: Induction of apoptosis in human MCF7 cells assessed as increase in P53 tumor suppressor protein expression at 4 uM after 24 hrs by ELISA. Type of experiment: functional, cell-based. On the technique in general: In an ELISA, binding on a coated surface is turned into a signal by an enzyme label.
In experiment [14] the test system is MCF7. Put plainly: Induction of apoptosis in human MCF7 cells assessed as increase in P21 tumor suppressor protein expression at 4 uM after 24 hrs by Western blot analysis. Type of experiment: functional, cell-based.
For experiment [15], the system named is MCF7. Put plainly: Induction of apoptosis in human MCF7 cells assessed as decrease in cyclin D1 expression at 4 uM after 24 hrs by Western blot analysis. Type of experiment: functional, cell-based.
Experiment [16] has as its system MCF7. The experiment is described as follows: Induction of apoptosis in human MCF7 cells assessed as decrease in PARP protein expression at 4 uM after 24 hrs by Western blot analysis. Type of experiment: functional, cell-based.
The test system of experiment [17] is MCF7. Put plainly: Induction of DNA in human MCF7 cells assessed as increase in phosphorylated gamma-H2AX foci formation measured by immunoflourosence microscopy relative to control. It counts as functional.

As for `COc1ccc(-c2nc(C(=O)N3CCN(CCCCCCOc4cc5c(cc4OC)C(=O)N4CCC[C@H]4C=N5)CC3)c3ccccn23)cc1`, in experiment [1], the IC50 is 3.68 µM. The Activity amounted to 13.2% in experiment [2]; 54.67% in [3]; 40.53% in [4]; 5.39% in [5]; 41.06% in experiment [6]; 23.56% in experiment [7]. Moreover, the Activity in experiment [9] is 13.33%; in [10], 8.44%. For the same compound, the ΔTm in [8] was 8.9 °C.
Regarding `COc1cc2c(cc1OCCCCCN1CCN(C(=O)c3nc(-c4ccc(C(F)(F)F)cc4)n4ccccc34)CC1)N=C[C@@H]1CCCN1C2=O`, in experiment [1], the IC50 worked out at 3.16 µM. In addition, the Activity was 8.48% in experiment [2]; 49.66% in experiment [3]; 41.41% in [4]; 5.7% in experiment [5]; 44.41% in [6]; 25.32% in experiment [7]. The Activity is on record as 17.13% in experiment [9], 80% in experiment [17] and 6.9% in experiment [10]. For the same compound, the outcome in experiment [11], in experiment [12], in [13] and in [14] was Active. In addition, in experiment [8], the ΔTm is 10.2 °C. Moreover, the inhibition entry in [15] and in experiment [16] was “Active” throughout.
Regarding `COc1ccc(-c2nc(C(=O)N3CCN(CCCCOc4cc5c(cc4OC)C(=O)N4CCC[C@H]4C=N5)CC3)c3ccccn23)cc1`, the IC50 in experiment [1] worked out at 4.17 µM. Also, the Activity is given as 9.89% in [2]; 59.03% in experiment [3]; 34.52% in experiment [4]; 4.51% in experiment [5]; 51.08% in experiment [6]; 22.9% in [7]. In addition, the Activity is given as 7.01% in experiment [9] and 14.04% in [10]. For the same compound, the ΔTm in experiment [8] was found to be 9.9 °C.
As for `COc1ccc(-c2nc(C(=O)N3CCN(CCCOc4cc5c(cc4OC)C(=O)N4CCC[C@H]4C=N5)CC3)c3ccccn23)cc1`, the IC50 in experiment [1] turned out to be 6 µM. Moreover, the Activity in experiment [2] is reported as 19.65%; in experiment [3], 66.92%; in [4] it was 31.44%; in experiment [5] it was 3.56%; in experiment [6] it was 45.35%; in experiment [7], 13.27%. In addition, the Activity in [9] is 6%; in [10], 13.81%. The ΔTm in experiment [8] was determined as 8.8 °C.
With `COc1cc2c(cc1OCCCCN1CCN(C(=O)c3nc(-c4ccccc4)n4ccccc34)CC1)N=C[C@@H]1CCCN1C2=O`, the IC50 in [1] turned out to be 7.18 µM. Besides, the Activity was 17.03% in [2]; 63.74% in experiment [3]; 31.3% in [4]; 2.8% in experiment [5]; 48.87% in experiment [6]; 20.95% in experiment [7]. For the same compound, the figures for the Activity in experiment [9] and in [10] were 5.47% and 9.85%, respectively. For the same compound, the ΔTm in [8] came to 8.9 °C.
`COc1ccc(-c2nc(C(=O)N3CCN(CCCCCOc4cc5c(cc4OC)C(=O)N4CCC[C@H]4C=N5)CC3)c3ccccn23)cc1`: the IC50 in [1] was determined as 5.67 µM. Also, the Activity turned out to be 10.06% in [2]; 53.22% in experiment [3]; 31.61% in experiment [4]; 5.57% in experiment [5]; 52.76% in [6]; 30.3% in experiment [7]. The Activity in [9] is listed as 6.07%; in [10] it was 10.42%. In experiment [8], the ΔTm worked out at 9.9 °C.
For the compound `COc1cc2c(cc1O)N=C[C@@H]1CCCN1C2=O`, the concentration for half-maximal inhibition (IC50) in [1] was determined as 5 µM. Besides, the Activity was found to be 16.13% in experiment [2]; 54.08% in [3]; 27.28% in [4]; 2.83% in experiment [5]; 53.76% in experiment [6]; 26.83% in [7]. Besides, the Activity in experiment [9] amounted to 5.33%; in experiment [10] it was 13.76%. Further, the outcome in experiment [11], in [13] and in experiment [14] was Active. The ΔTm in experiment [8] was found to be 0.7 °C.
Turning to `COc1cc2c(cc1OCCCCCCN1CCN(C(=O)c3nc(-c4ccccc4)n4ccccc34)CC1)N=C[C@@H]1CCCN1C2=O`, in [1], the IC50 was found to be 3.74 µM. Also, the Activity in [2] was 10.52%; in [3], 55.54%; in experiment [4] it was 39.25%; in experiment [5], 4.08%; in [6], 43.15%; in [7] it was 20.15%. Also, the Activity came out at 7.79% in experiment [9] and 16.52% in experiment [10]. Also, the ΔTm in experiment [8] was 8 °C.
On to `O=C(c1nc(-c2ccc(C(F)(F)F)cc2)n2ccccc12)N1CCNCC1`, for which, in experiment [8], the ΔTm turned out to be 2.5 °C.
On the same count and under the same terms, in the case of `O=C(O)c1nc(-c2ccc(C(F)(F)F)cc2)n2ccccc12` it was 0.3 °C.
In the case of `COc1cc2c(cc1OCCCCCCN1CCN(C(=O)c3nc(-c4ccc(C(F)(F)F)cc4)n4ccccc34)CC1)N=C[C@@H]1CCCN1C2=O`, the IC50 in experiment [1] is 4.28 µM. The Activity in experiment [2] came to 9.33%; in experiment [3], 52.13%; in experiment [4] it was 34.09%; in experiment [5], 3.66%; in [6] it was 52.92%; in experiment [7], 30.79%. The Activity in [9] was determined as 7.14%; in experiment [10], 9.94%. Further, the ΔTm in [8] turned out to be 8.7 °C.
With `COc1cc2c(cc1OCCCCN1CCN(C(=O)c3nc(-c4ccc(C(F)(F)F)cc4)n4ccccc34)CC1)N=C[C@@H]1CCCN1C2=O`, in [1], the IC50 was determined as 3.26 µM. Moreover, the Activity turned out to be 12.14% in experiment [2]; 57.32% in experiment [3]; 41.29% in experiment [4]; 3.64% in experiment [5]; 42.94% in experiment [6]; 18.71% in experiment [7]. For the same compound, the figures for the Activity in [9] and in experiment [10] were 15.19% and 8.78%, respectively. Besides, the outcome in experiment [11], in experiment [12], in experiment [13] and in [14] was Active. Moreover, in experiment [8], the ΔTm amounted to 10 °C. The inhibition result in experiment [15] and in [16] was “Active” throughout.
As to `COc1cc2c(cc1OCCCN1CCN(C(=O)c3nc(-c4ccc(C(F)(F)F)cc4)n4ccccc34)CC1)N=C[C@@H]1CCCN1C2=O`, the IC50 in experiment [1] amounted to 5.74 µM. Besides, the Activity is 10.34% in [2]; 69.36% in experiment [3]; 32.52% in [4]; 4.52% in experiment [5]; 52.63% in experiment [6]; 14.71% in [7]. Further, the Activity in experiment [9] is 6.23%; in [10], 9.7%. The ΔTm in experiment [8] was 8.8 °C.
Regarding `COc1cc2c(cc1OCCCN1CCN(C(=O)c3nc(-c4ccccc4)n4ccccc34)CC1)N=C[C@@H]1CCCN1C2=O`, in experiment [1], the IC50 was found to be 7.21 µM. The Activity in [2] worked out at 11.86%; in experiment [3], 54.44%; in experiment [4], 28.35%; in experiment [5], 4.26%; in [6] it was 55.54%; in experiment [7], 30.14%. Also, the Activity in experiment [9] was 5.23%; in experiment [10], 10.19%. The ΔTm in experiment [8] came to 8.9 °C.
For the compound `COc1cc2c(cc1OCCCCCN1CCN(C(=O)c3nc(-c4ccccc4)n4ccccc34)CC1)N=C[C@@H]1CCCN1C2=O`, the IC50 in experiment [1] worked out at 4.16 µM. Moreover, the Activity in [2] is 9.84%; in experiment [3] it was 51.6%; in experiment [4], 36.5%; in [5], 4.49%; in experiment [6] it was 49.16%; in [7], 30.74%. In addition, the Activity in experiment [9] is 7.6%; in experiment [10], 10%. For the same compound, the ΔTm in experiment [8] was 9 °C.

By IC50 is commonly meant the concentration that gives 50% inhibition. As usually defined, the ΔTm is the change in melting temperature against a reference sample.
